Key:
[1] = molecular target: hADORA1/CHO (hA1 expressing) cells (Homo sapiens (Human), UniProt P30542); assay: cell-based; conditions: FLIPR inhibition, 10 μM adenosine, read-out: cAMP & FLIPR IC50 (nM) hA1
hA2a/CHO = hA2a/CHO (Homo sapiens (Human), UniProt P29274); assay: cAMP inhibition assay in hA2a/CHO cells, 10 μM adenosine; format: cell-based; conditions: read-out: cAMP & FLIPR IC50 (nM) hA2a;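 also: compounds added to cells 30 min ahead of adenosine, then a further 30 min at 37 °C with adenosine before cAMP detection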
Sequence of hA2a/CHO (P29274 whole entry): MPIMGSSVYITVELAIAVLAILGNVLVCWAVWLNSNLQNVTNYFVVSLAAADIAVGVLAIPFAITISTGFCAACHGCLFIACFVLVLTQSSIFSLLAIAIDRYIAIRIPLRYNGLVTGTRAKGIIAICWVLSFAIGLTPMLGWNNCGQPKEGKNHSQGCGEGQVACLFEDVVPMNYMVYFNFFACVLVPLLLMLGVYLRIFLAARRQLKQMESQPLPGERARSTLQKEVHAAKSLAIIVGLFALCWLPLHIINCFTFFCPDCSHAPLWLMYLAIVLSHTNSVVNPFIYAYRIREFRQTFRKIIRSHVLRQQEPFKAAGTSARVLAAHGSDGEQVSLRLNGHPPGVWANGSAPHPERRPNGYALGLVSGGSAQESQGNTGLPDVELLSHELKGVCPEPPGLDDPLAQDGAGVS
Description: hA2a/CHO, hA2b/CHO, hA3/CHO and mA2a/CHO (Genscript) were plated at 5×10^3 cells/well into 384-well polystyrene plates at the day of experiment. Compounds were pre-incubated with cells for 30 min at 37° C., 5% CO2. Then 10 μM adenosine was added to the cells and incubated for 30 min at 37° C., 5% CO2. Detection reagent (CISBIO) was added and the plates were incubated for 60 min at room temperature. The signal was captured by Envision.

Sequence of hADORA1/CHO (hA1 expressing) cells (P30542 whole entry): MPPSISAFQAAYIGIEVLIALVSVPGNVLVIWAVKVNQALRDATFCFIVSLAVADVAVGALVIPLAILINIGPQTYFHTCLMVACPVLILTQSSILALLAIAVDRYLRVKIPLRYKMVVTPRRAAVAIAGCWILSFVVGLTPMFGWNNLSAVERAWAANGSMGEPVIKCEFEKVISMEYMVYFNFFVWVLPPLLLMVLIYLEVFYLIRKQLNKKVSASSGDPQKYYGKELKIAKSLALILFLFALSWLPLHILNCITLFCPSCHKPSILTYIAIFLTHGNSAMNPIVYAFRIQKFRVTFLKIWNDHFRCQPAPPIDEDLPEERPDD

Compound	IC50 [1] [nM]	IC50 (hA2a/CHO) [nM]
Cc1cnc2ccc(-c3nc(C(=O)NC(C)C4CCCO4)c(N)nc3-c3ncco3)cn12 (single isomer, unassigned; isomer 4) [Example 258, 3-amino-6-(3-methylimidazo[1,2-a]pyridin-6-yl)-5-(oxazol-2-yl)-N-(1-(tetrahydrofuran-2-yl)ethyl)pyrazine-2-carboxamide (isomer 4)]	2510	8.1
Cc1cnc2ccc(-c3nc(C(=O)NCC4CC(C)(C)O4)c(N)nc3-c3ncco3)cn12 (single isomer, unassigned; isomer 1) [Example 260, 3-amino-N-((4,4-dimethyloxetan-2-yl)methyl)-6-(3-methylimidazo[1,2-a]pyridin-6-yl)-5-(oxazol-2-yl)pyrazine-2-carboxamide (isomer 1)]	30	5.9
Cc1cnc2ccc(-c3nc(C(=O)NC[C@H]4CC(C)(C)CN4C)c(N)nc3-c3ncco3)cn12 (single isomer, unassigned; isomer 2) [Example 230, 3-amino-6-(3-methylimidazo[1,2-a]pyridin-6-yl)-5-(oxazol-2-yl)-N-((1,4,4-trimethylpyrrolidin-2-yl)methyl) pyrazine-2-carboxamide (isomer 2)]	6000	15
Cc1cnc2ccc(-c3nc(C(=O)NCCn4ccccc4=O)c(N)nc3-c3ncco3)cn12 [Example 237, 3-amino-6-(3-methylimidazo[1,2-a]pyridin-6-yl)-5-(oxazol-2-yl)-N-(2-(2-oxopyridin-1(2H)-yl)ethyl)pyrazine-2-carboxamide]	71	5.1
Cc1cnc2ccc(-c3nc(C(=O)NCC4CCCN(C)C4=O)c(N)nc3-c3ncco3)cn12 (single isomer, unassigned; isomer 1) [Example 263, 3-amino-N-((1-methyl-2-oxopiperidin-3-yl)methyl)-6-(3-methylimidazo[1,2-a]pyridin-6-yl)-5-(oxazol-2-yl) pyrazine-2-carboxamide (isomer 1)]	103	0.4
Cc1cnc2ccc(-c3nc(C(=O)NCc4cccc(C5CCN(C)CC5)n4)c(N)nc3-c3ncco3)cn12 [Example 176, 3-amino-6-(3-methylimidazo[1,2-a]pyridin-6-yl)-N-((6-(1-methylpiperidin-4-yl)pyridin-2-yl)methyl)-5-(oxazol-2-yl) pyrazine-2-carboxamide]	599	11
Cc1cnc2ccc(-c3nc(C(=O)NCc4cccc(N5CC(CN(C)C)C5)n4)c(N)nc3-c3ncco3)cn12 [Cmpd. 261, 3-amino-N-((6-(3-((dimethylamino)methyl)azetidin-1-yl)pyridin-2-yl)methyl)-6-(3-methylimidazo[1,2-a]pyridin-6-yl)-5-(oxazol-2-yl)pyrazine-2-carboxamide]	158	0.4
Cc1cnc2ccc(-c3nc(C(=O)NCC(C4CC4)N(C)C)c(N)nc3-c3ncco3)cn12 (single isomer, unassigned; isomer 1) [Example 253, 3-amino-N-(2-cyclopropyl-2-(dimethylamino)ethyl)-6-(3-methylimidazo[1,2-a]pyridin-6-yl)-5-(oxazol-2-yl) pyrazine-2-carboxamide (isomer 1)]	8170	12
Cc1cnc2ccc(-c3nc(CNC(=O)[C@H]4CCCN4C)c(N)nc3-c3cccc(F)c3)cn12 [Example 278, (R)—N-((3-amino-5-(3-fluorophenyl)-6-(3-methylimidazo[1,2-a]pyridin-6-yl)pyrazin-2-yl)methyl)-1-methylpyrrolidine-2-carboxamide]	12	0.4
Cc1cnc2ccc(-c3nc(C(=O)NC(C)C4CCCO4)c(N)nc3-c3ncco3)cn12 (single isomer, unassigned; isomer 2) [Example 262, 3-amino-6-(3-methylimidazo[1,2-a]pyridin-6-yl)-5-(oxazol-2-yl)-N-(1-(tetrahydrofuran-2-yl)ethyl)pyrazine-2-carboxamide (isomer 2)]	11600	12
Cc1cnc2ccc(-c3nc(C(=O)N[C@@H]4CCOC4)c(N)nc3-c3ncco3)cn12 [Example 255, (R)-3-amino-6-(3-methylimidazo [1,2-a]pyridin-6-yl)-5-(oxazol-2-yl)-N-(tetrahydrofuran-3-yl)pyrazine-2-carboxamide]	6850	20
Cc1cnc2ccc(-c3nc(CNC(=O)[C@@H]4CCCO4)c(N)nc3-c3ccc(F)cc3)cn12 [Example 265, (S)-N-((3-amino-5-(4-fluorophenyl)-6-(3-methylimidazo[1,2-a]pyridin-6-yl)pyrazin-2-yl)methyl)tetrahydrofuran-2-carboxamide]	26	7.3
Cc1cnc2ccc(-c3nc(C(=O)NCC4CC(C)(C)O4)c(N)nc3-c3ncco3)cn12 (single isomer, unassigned; isomer 2) [Example 270, 3-amino-N-((4,4-dimethyloxetan-2-yl)methyl)-6-(3-methylimidazo[1,2-a]pyridin-6-yl)-5-(oxazol-2-yl)pyrazine-2-carboxamide (isomer 2)]	300	7.4
Cc1cnc2ccc(-c3nc(C(=O)N[C@H]4C[C@H](N(C)C)C4)c(N)nc3-c3ncco3)cn12 [Example 271-2, Trans-3-amino-N-(3-(dimethylamino)cyclobutyl)-6-(3-methylimidazo[1,2-a]pyridin-6-yl)-5-(oxazol-2-yl)pyrazine-2-carboxamide]	865	23
Cc1cnc2ccc(-c3nc(C(=O)NCC4CCN(C)C4=O)c(N)nc3-c3ccc(F)cc3)cn12 (single isomer, unassigned; isomer 2) [Example 256, 3-amino-5-(4-fluorophenyl)-N-((1-methyl-2-oxopyrrolidin-3-yl)methyl)-6-(3-methylimidazo[1,2-a]pyridin-6-yl) pyrazine-2-carboxamide (isomer 2)]	34	1.8
Cc1cnc2ccc(-c3nc(CNC(=O)[C@H]4CCOC4)c(N)nc3-c3ccc(F)cc3)cn12 [Example 264, (S)-N-((3-amino-5-(4-fluorophenyl)-6-(3-methylimidazo[1,2-a]pyridin-6-yl)pyrazin-2-yl)methyl)tetrahydrofuran-3-carboxamide]	84	25
NCc1cnc2ccc(-c3nc(C(=O)NCc4ncccc4F)c(N)nc3-c3ncco3)cn12 [Cmpd. 198, 3-amino-6-(3-(aminomethyl)imidazo[1,2-a]pyridin-6-yl)-N-((3-fluoropyridin-2-yl)methyl)-5-(oxazol-2-yl)pyrazine-2-carboxamide]	> 10000	
Cc1cnc2ccc(-c3nc(C(=O)NC(C)Cn4cncn4)c(N)nc3-c3ncco3)cn12 (racemic) [Example 306, rac-N-(1-(1H-1,2,4-triazol-1-yl)propan-2-yl)-3-amino-6-(3-methylimidazo [1,2-a]pyridin-6-yl)-5-(oxazol-2-yl) pyrazine-2-carboxamide]		14
Cc1cnc2ccc(-c3nc(C(=O)NCc4cccc(N5CCN(C)[C@@H](C)C5)n4)c(N)nc3-c3ncco3)cn12 [Example 286, (S)-3-amino-N-((6-(3,4-dimethylpiperazin-1-yl)pyridin-2-yl)methyl)-6-(3-methylimidazo[1,2-a]pyridin-6-yl)-5-(oxazol-2-yl)pyrazine-2-carboxamide]		3.2
Cc1cnc2ccc(-c3nc(C(=O)NCc4cccc(N5CC6(CCN(C)C6)C5)n4)c(N)nc3-c3ncco3)cn12 [Cmpd. 175, 3-amino-N-((6-(6-methyl-2,6-diazaspiro[3.4]octan-2-yl)pyridin-2-yl)methyl)-6-(3-methylimidazo[1,2-a]pyridin-6-yl)-5-(oxazol-2-yl)pyrazine-2-carboxamide]		0.9
Cc1cnc2ccc(-c3nc(C(=O)NCC(C)(C)C(=O)N(C)C)c(N)nc3-c3ncco3)cn12 [Example 281, 3-[(3-amino-6-[3-methylimidazo[1,2-a]pyridin-6-yl]-5-(1,3-oxazol-2-yl)pyrazin-2-yl)formamido]-N,N,2,2-tetramethylpropanamide]		0.3
Cc1cnc2ccc(-c3nc(C(=O)NCc4ncccc4F)c(N)nc3N3CCOCC3)cn12 [Cmpd. 223, 3-amino-N-[(3-fluoropyridin-2-yl)methyl]-6-[3-methylimidazo[1,2-a]pyridin-6-yl]-5-(morpholin-4-yl)pyrazine-2-carboxamide]	> 10000	
CNCCOc1cccnc1CNC(=O)c1nc(-c2ccc3ncc(C)n3c2)c(-c2ncco2)nc1N [Example 301, 3-amino-N-([3-[2-(methylamino)ethoxy]pyridin-2-yl]methyl)-6-[3-methylimidazo[1,2-a]pyridin-6-yl]-5-(1,3-oxazol-2-yl)pyrazine-2-carboxamide]		3
Cc1cnc2ccc(-c3nc(C(=O)NCc4cccc(N5CCN(C)[C@H](C)C5)n4)c(N)nc3-c3ncco3)cn12 [Example 285, 3-amino-N-([6-[(3R)-3,4-dimethylpiperazin-1-yl]pyridin-2-yl]methyl)-6-[3-methylimidazo[1,2-a]pyridin-6-yl]-5-(1,3-oxazol-2-yl)pyrazine-2-carboxamide]		4.5
Cc1cnc2ccc(-c3nc(C(=O)NCC4CCOC4)c(N)nc3-c3ccccn3)cn12 (single isomer, unassigned) [Example 304, 3-amino-6-[3-methylimidazo[1,2-a]pyridin-6-yl]-N-[[oxolan-3-yl]methyl]-5-(pyridin-2-yl)pyrazine-2-carboxamide]		8.2
Cc1cnc2ccc(-c3nc(CNC(=O)[C@H]4CCCN4C)c(N)nc3-n3nccn3)cn12 [Example 290, (2R)—N-[(3-amino-6-[3-methylimidazo[1,2-a]pyridin-6-yl]-5-(2H-1,2,3-triazol-2-yl)pyrazin-2-yl)methyl]-1-methylpyrrolidine-2-carboxamide]		5.8
Cc1cnc2ccc(-c3nc(C(=O)NC[C@H]4CCCN4C)c(N)nc3-c3ccccc3)cn12 [Cmpd. 259, 3-amino-6-[3-methylimidazo[1,2-a]pyridin-6-yl]-N-[[(2R)-1-methylpyrrolidin-2-yl]methyl]-5-phenylpyrazine-2-carboxamide]		3.7

— patent US10898481B2 (priority 2018, dated 2021)
